Entries after “also recorded” stand apart in the source; their conditions may differ.
What was measured:
[1] = target: CA II (Homo sapiens, UniProt P00918); assay: CA II inhibition; format: biochemical; conditions: read-out: CAII(50)
Method: CA II inhabition was measured using the protocol described by Pocker, Y.'Stone, J. Biochemistry 1967, 6, 668.

[2] = test system: human lung carcinoma cells (H460); assay: Co-treatment of H460 cell line with Taxol and compound 1; format: cell-based; conditions: Taxol™ (50 nM) + compound at 5, 10, 20 uM; Taxol™ and/or cisplatin
Method: H460 and OV2008 cells were plated and incubated for 48 hours. Compound 1 and/or compound 1 and Taxol™ were added. Viability was determined after 24 hours, staining with MTT (Promega).
FIG. 3 illustrates the co-treatment of H460 and OV 2008 cell lines with Taxol™ and compound 1. H460 lung carcinoma and OV2008 ovarian carcinoma cells were treated with Taxol™ (50 nM) and/or Taxol™ (50 nM)+compound 1 (noted as AEG 03482) at levels of 5, 10, and 20 uM.

[3] = test system: sciatic nerve; assay: Sciatic nerve crush injury model; format: in vivo, Sprague Dawley rats
Excerpt: The sciatic nerve crush model is a representative model of axonal repair and regeneration. The sciatic nerve is physically crushed with forceps at the mid-thigh; only the right leg is injured, the left leg serving as a control. The axons die from the crush point to their point of innervation. Functional loss of the axons is rapidly observed as the animals drag their right leg and the toes of the right leg no longer spread. Recovery is observed in approximately 28 days as the animals regain use of their right leg. More quantitative measurements of recovery include toe spread measurements between the digits 1 and 5 and digits 2 and 4, gait analysis and electrical conductivity from the toes to the injury site (see Example 161). Male Sprague Dawley rats were anaesthetized (halothane and buprenorphine) and the right hind leg was blunt dissected to expose the sciatic nerve at mid-thigh. The nerve was crushed twice for a total of 30 seconds using No.7 Dumont jeweller's forceps. The incision is sutured and the animals are allowed to recover for 28 days. Functional recovery was measured by gait, nerve conductance and toe spread measurements between digits 1 and 5 and digits 2 and 4.

[4] = test system: Akt; assay: Akt activity in PC12 cells and SCGs; format: cell-based
Excerpt: (§1) Additionally, the Erks protect cultured neurons from a number of insults including neurotrophin withdrawal (Bonni, A., et al., Science, 1999, 286, 1358-1362). […] Compound 1, therefore, protects neurons by activating a subset of NGF-stimulated signaling pathways.

[5] = test system: SCG neurons; assay: cells; conditions: Rattus norvegicus, Neuron, 48 h, read-out: IC50, protection of SCG neurons against cisplatin killing
[6] = Acute toxicity studies with compound 1 alone; format: in vivo; conditions: compound alone, 1, 5, and 10 mg/kg for 3 weeks
Method: Male Spraugue Dawley rats were treated with 50% HPDC vehicle (veh/veh), compound I dissolved in 50% HPDC at 1, 5, or 10 mg/kg (veh/1, veh/5, veh/10, respectively), or Taxol™ (9 mg/kg)+compound 1 dissolved in 50% HPDC at 1, 5, and 10 mg/kg (Tax/1, Tax/5, Tax/10) according to the dosing regime described in Example 160. Weight measurements were made ever other day.

[7] = test system: SCG neurons; assay: cells; format: cell-based, Sprague Dawley rats; conditions: for IC50: Rattus norvegicus, Neuron
[8] = test system: Erk; assay: Erk activity in PC12 cells and sympathetic neurons; format: cell-based; conditions: PC12 cells and primary cultures of sympathetic neurons
Excerpt: as §1

[9] = test system: SCG neurons; assay: In vitro protection of SCG neurons from vincristine killing; format: cell-based, Sprague Dawley rats; conditions: Rattus norvegicus, Neuron; vincristine (50 ng/mL), 48 hours, MTS; ±1 μM; read-out: IC50, protection of SCG neurons against Vincristine killing
Excerpt: Similarly, vincristine and vinblastine are commonly used anti-tumour agents whose mode of action involve tubulin binding.

[10] = test system: SCG neurons; assay: Protection of SCG neurons from anti-NGF killing; format: cell-based, Sprague Dawley rats; conditions: Rattus norvegicus, Neuron; anti-NGF antibody, serum and NGF free 48 hours, Alamar Blue; +/−1 uM; read-out: IC(50), rescue from anti-NGF killing of SCG neurons

NS(=O)(=O)c1nn2cc(-c3ccccc3)nc2s1 [Compound 1, 6-Phenylimidazo[2,1-b]-1,3,4-thiadiazole-2-sulfonamide]
IC50 [1]: 0.25 µM | protection of H460 cells from Taxol™ induced apoptosis [2]: no protection; also recorded: did not protect | functional recovery after sciatic nerve crush ([3]; 1 and 10 mg/kg): improved recovery | recovery in toe spread area (inner toe spread) ([3]; versus vehicle control): induced increased recovery | activity of Akt [4]: remained unchanged | IC50 [5]: 5 µM | acute signs of toxicity [6]: No acute signs of toxicity | protection against Taxol™ induced killing ([7]; 10 uM, Taxol™ 50 ng/mL, MTS): 100% | IC50 ([7]; Taxol™ (50 ng/mL), viability 48 hours later, MTS, read-out: IC(50), protection of SCG neurons from Taxol killing): 7 µM | IC50 ([7]; read-out: IC(50) against Taxol killing of SCGs): 7 µM | Erk activity [8]: dramatic increase | IC50 [9]: 10 µM | IC50 [10]: 22 µM

From patent US7772260B2, “Imidazo[2,1-b]-1,3,4-thiadiazole sulfonamides” (Aegera Therapeutics Inc., priority 2001, dated 2010)
